These results are taken from ChEMBL document CHEMBL2046413, “Iridoid glucosides and a C₁₃-norisoprenoid from Lamiophlomis rotata and their effects on NF-κB activation” (Bioorg Med Chem Lett, 2012).

The test system of test [1] is HEK293. Put plainly: Inhibition of NF-KB production in human HEK293 cells by BCA protein assay. Type of test: functional, cell-based.
For test [2], the system named is HEK293. Put plainly: Inhibition of LPS-induced NF-KB transcriptional activity expressed in HEK-293 cells at 1 ug/ml after 4 hrs by luciferase reporter gene assay relative to LPS-treated group. Type of test: cell-based.
Test [3] deals with HEK293. The test can be described thus: Inhibition of LPS-induced NF-KB transcriptional activity expressed in HEK-293 cells at 10 ug/ml after 4 hrs by luciferase reporter gene assay relative to LPS-treated group. Type of test: cell-based.
Test [4] deals with HEK293. Put plainly: Inhibition of LPS-induced NF-KB transcriptional activity expressed in HEK-293 cells at 100 ug/ml after 4 hrs by luciferase reporter gene assay relative to LPS-treated group. Type of test: cell-based.

The structures appear in SMILES notation.

As for `COC(=O)C1=CO[C@@H](O[C@@H]2O[C@H](CO)[C@@H](O)[C@H](O)[C@H]2O)[C@@H]2[C@H](C)CC[C@H]12`, the inhibition entry in test [1] was “Dose-dependent effect”. Further, the NF-κB luciferase activity relative to LPS-treated group in test [2] turned out to be 0.23; in test [4], 0.62. The compound also yielded an RLU in test [3] of 0.44.

`C=C1C[C@@H](O)[C@@H]2C(C(=O)OC)=CO[C@@H](O[C@@H]3O[C@H](CO)[C@@H](O)[C@H](O)[C@H]3O)[C@H]12`: the NF-κB luciferase activity relative to LPS-treated group in test [2] was found to be 0.26; in test [4], 0.4. The compound further registered an RLU in test [3] of 0.43.

As to `COC(=O)C1=CO[C@@H](O[C@@H]2O[C@H](CO)[C@@H](O)[C@H](O)[C@H]2O)[C@@H]2[C@@H](C)[C@@H](O)C[C@H]12`, the NF-κB luciferase activity relative to LPS-treated group was determined as 0.66 in test [2] and 0.56 in test [4]. In test [3], this compound had an RLU of 0.56.

Turning to `COC(=O)C1=CO[C@@H](O[C@@H]2O[C@H](CO)[C@@H](O)[C@H](O)[C@H]2O)[C@H]2[C@@H]1[C@H](OC(C)=O)C[C@]2(C)O`, the NF-κB luciferase activity relative to LPS-treated group in test [2] is 0.06; in test [4] it was 0.11. Further, the RLU in test [3] stood at 0.13.

With `COC(=O)C1=CO[C@@H](O[C@@H]2O[C@H](CO)[C@@H](O)[C@H](O)[C@H]2O)[C@H]2[C@@H]1[C@H](O)[C@H](O)[C@@]2(C)O`, the NF-κB luciferase activity relative to LPS-treated group in test [2] is 0.37; in test [4] it was 0.38. For the same compound, the RLU in test [3] was found to be 0.15.

Turning to `COC(=O)C1=CO[C@@H](O[C@@H]2O[C@H](COC(=O)c3cc(OC)c(O)c(OC)c3)[C@@H](O)[C@H](O)[C@H]2O)[C@H]2[C@@H]1[C@H](O)[C@@H]1O[C@]21C`, the NF-κB luciferase activity relative to LPS-treated group in test [2] was determined as 0.55; in test [4], 0.48. The compound also returned an RLU in test [3] of 0.32.

With `C[C@]12CCC(=O)C=C1CC[C@@H]1[C@@H]2[C@@H](O)C[C@@]2(C)[C@H]1CC[C@]2(O)C(=O)CO`, the NF-κB luciferase activity relative to LPS-treated group was determined as 0.26 in test [2] and 0.45 in test [4]. In addition, the RLU in test [3] turned out to be 0.32.

As for `COC(=O)C1=CO[C@@H](O[C@@H]2O[C@H](CO)[C@@H](O)[C@H](O)[C@H]2O)[C@H]2[C@@H]1[C@H](O)[C@H](O)[C@]2(C)O`, the figures for the NF-κB luciferase activity relative to LPS-treated group in test [2] and in test [4] were 0.23 and 0.41, respectively. The compound further yielded an RLU in test [3] of 0.19.

On to `COC(=O)C1=CO[C@@H](O[C@@H]2O[C@H](CO)[C@@H](O)[C@H](O)[C@H]2O)[C@H]2[C@@H]1[C@H](O)[C@@H](Cl)[C@]2(C)O`, for which the values for the NF-κB luciferase activity relative to LPS-treated group in test [2] and in test [4] were 0.05 and 0.22, respectively. Moreover, the RLU in test [3] is 0.19.

With `COC(=O)C1=CO[C@@H](O[C@@H]2O[C@H](CO)[C@@H](O)[C@H](O)[C@H]2O)[C@H]2[C@@H]1[C@H](OC(=O)c1cc(OC)c(O)c(OC)c1)C[C@]2(C)OC(C)=O`, the values for the NF-κB luciferase activity relative to LPS-treated group in test [2] and in test [4] were 0.12 and 0.42, respectively. In test [3], this compound came in with an RLU of 0.08.

In the case of `COC(=O)C1=CO[C@@H](O[C@@H]2O[C@H](CO)[C@@H](O)[C@H](O)[C@H]2O)[C@H]2[C@@H]1[C@H](O)[C@@H]1O[C@]21C`, the NF-κB luciferase activity relative to LPS-treated group in test [2] turned out to be 0.23; in test [4], 0.42. Besides, the RLU in test [3] worked out at 0.46.

As for `COC(=O)C1=CO[C@@H](O[C@@H]2O[C@H](CO)[C@@H](O)[C@H](O)[C@H]2O)[C@H]2[C@@H]1[C@H](O)C[C@]2(C)O`, the results for the NF-κB luciferase activity relative to LPS-treated group in test [2] and in test [4] were 0.39 and 0.31, respectively. Besides, the RLU in test [3] was 0.21.

For the compound `COC(=O)C1=CO[C@@H](O[C@@H]2O[C@H](CO)[C@@H](O)[C@H](O)[C@H]2O)[C@@H]2C(C)=C[C@@H](O)[C@]12O`, the inhibition entry in test [1] is “Dose-dependent effect”. For the same compound, the NF-κB luciferase activity relative to LPS-treated group turned out to be 0.06 in test [2] and 0.24 in test [4]. In test [3], this compound displayed an RLU of 0.18.

As for `COC(=O)C1=CO[C@@H](O[C@@H]2O[C@H](CO)[C@@H](O)[C@H](O)[C@H]2O)[C@H]2[C@@H]1[C@H](O)C[C@]2(C)OC(C)=O`, the NF-κB luciferase activity relative to LPS-treated group in test [2] came out at 0.13; in test [4], 0.34. For the same compound, the RLU in test [3] stood at 0.4.

Consider `COC(=O)C1=CO[C@@H](O[C@@H]2O[C@H](CO)[C@@H](O)[C@H](O)[C@H]2O)[C@@H]2C(C)=C[C@@H](O)[C@H]12`, for which the NF-κB luciferase activity relative to LPS-treated group worked out at 0.5 in test [2] and 0.68 in test [4]. This compound also displayed an RLU in test [3] of 0.59.

As for `COC(=O)C1=CO[C@@H](O[C@@H]2O[C@H](CO)[C@@H](O)[C@H](O)[C@H]2O)[C@@H]2[C@@](C)(O)[C@H](O)[C@@H](O)[C@]12O`, the NF-κB luciferase activity relative to LPS-treated group came out at 0.18 in test [2] and 0.31 in test [4]. In addition, in test [3], the RLU stood at 0.34.

As for `COC(=O)C1=CO[C@@H](O[C@@H]2O[C@H](CO)[C@@H](O)[C@H](O)[C@H]2O)[C@@H]2[C@@](C)(O)[C@@H](O)[C@@H](O)[C@]12O`, the NF-κB luciferase activity relative to LPS-treated group in test [2] stood at 0.56; in test [4], 0.49. This compound returned an RLU in test [3] of 0.34.

Regarding `CCCCO[C@@H]1C=C(C)[C@H]2[C@H](O[C@@H]3O[C@H](CO)[C@@H](O)[C@H](O)[C@H]3O)OC=C(C(=O)OC)[C@H]21`, the inhibition result in test [1] is “Dose-dependent effect”. Further, the NF-κB luciferase activity relative to LPS-treated group was 0.15 in test [2] and 0.48 in test [4]. In test [3], the RLU is 0.38.

On to `C=CC(C)(O)CC/C=C(\C)C(=O)O[C@@H]1C[C@](C)(OC(C)=O)[C@H]2[C@H](O[C@@H]3O[C@H](CO)[C@@H](O)[C@H](O)[C@H]3O)OC=C(C(=O)OC)[C@H]21` (stereo partly specified), for which the NF-κB luciferase activity relative to LPS-treated group in test [2] was 0.25; in test [4] it was 0.31. Moreover, the RLU in test [3] came out at 0.21.

As to `COC(=O)C1=CO[C@@H](O[C@@H]2O[C@H](CO)[C@@H](O)[C@H](O)[C@H]2O)[C@@H]2[C@@]3(C)O[C@H]3[C@@H](O)[C@]12O`, the NF-κB luciferase activity relative to LPS-treated group worked out at 0.15 in test [2] and 0.36 in test [4]. This compound displayed an RLU in test [3] of 0.14.

In the case of `COC(=O)C1=CO[C@@H](O[C@@H]2O[C@H](CO)[C@@H](O)[C@H](O)[C@H]2O)[C@@H]2[C@H](C)[C@@H](O)C[C@H]12`, the NF-κB luciferase activity relative to LPS-treated group was determined as 0.14 in test [2] and 0.26 in test [4]. The compound further returned an RLU in test [3] of 0.13.
